{"source": "paper PMC6748410", "about": "“A phase 2 study of an oral mTORC1/mTORC2 kinase inhibitor (CC-223) for non-pancreatic neuroendocrine tumors with or without carcinoid symptoms” (PLoS ONE, 2019)", "origin": "cited, not measured here", "test_system": "NET arising from the pancreas, lung, or GI tract", "set-up": "method as in PMID 26703889, PMID 21306238", "details": "cited from earlier work", "data": [{"smiles": "CO[C@H]1C[C@@H]2CC[C@@H](C)[C@@](O)(O2)C(=O)C(=O)N2CCCC[C@H]2C(=O)O[C@H]([C@H](C)C[C@@H]2CC[C@@H](OCCO)[C@H](OC)C2)CC(=O)[C@H](C)/C=C(\\C)[C@@H](O)[C@@H](OC)C(=O)[C@H](C)C[C@H](C)/C=C/C=C/C=C/1C", "note": "[everolimus]", "values": [{"measurement": "Median progression-free survival (PFS)", "result": 11.0, "unit": "months"}]}]}
